Usually Ki stands for the equilibrium dissociation constant of an inhibitor or competing ligand from its target. Lower therefore signals higher affinity. Usually IC50 stands for the point on the concentration scale where inhibition reaches its midpoint. Read a low IC50 as higher potency.

For one assay, the target named is D2 receptor (Homo sapiens (Human), UniProt P14416). Kind of assay: D2 radioligand binding assay.
Assay [1] concerns D2R-mediated GSK3 signaling. The experiment in a line: D2R-mediated GSK3 signaling in HEK293T cells. Type of assay: cell-based. To be noted: HEK293T cells expressing both D2R and DISC1; 10 μM and 30 μM. From the text:
Example 90 blocks β-arrestin signaling downstream of D2R and leads to modulation of GSK3 signaling.

A further assay concerns striatal D2/D3. Kind of assay: Positron emission tomography with [11C]raclopride. The format is in vivo, Male Sprague-Dawley rats. The following applies: scans 1 hour after administration; in comparison with clozapine. On the procedure:
Positron Emission Tomography Studies on Rodents
All animal procedures were performed in accordance with the National Institutes of Health Guide for the Care and Use of Laboratory Animals and were approved by the Massachusetts General Hospital Institutional Animal Care and Use Facility. Male Sprague-Dawley rats (8-14 weeks old, Charles River Labs) were used for the study with animals pair-housed on a diurnal 12:12 light/dark cycle with free access to food and water. […] Respiration of each animal was monitored for the duration of the procedure.
Carbon 11-labeled raclopride ([^11C]RAC) was synthesized from the O-desmethyl RAC precursor and [11C] methyl iodide and subsequently purified by high-performance liquid chromatography as previously described (Farde L, et al. (1985) PNAS, USA 82(11):3863-3867). […] ROI dimensions, placement and striatal D2/D3 binding potential (BPND) were evaluated by graphical analysis using Logan distribution volume ratio (DVR) linearization as previously described (BPND.=DVR-1; Alexoff D, et al. (2002) J Nuc Med 44(5): 815-822; Logan J, et al. (1996) J Cerebral Blood Flow and Metabolism 16(5):[…]).

For a further assay, the target named is human D2R/β-arrestin (Homo sapiens (Human), UniProt P14416). Kind of assay: cell-based. To be noted: β-arrestin Antagonist, CHO-K1 cells expressing human D2R/β-arrestin; antagonist mode, quinpirole 130 nM.
Sequence of human D2R/β-arrestin (P14416 whole entry): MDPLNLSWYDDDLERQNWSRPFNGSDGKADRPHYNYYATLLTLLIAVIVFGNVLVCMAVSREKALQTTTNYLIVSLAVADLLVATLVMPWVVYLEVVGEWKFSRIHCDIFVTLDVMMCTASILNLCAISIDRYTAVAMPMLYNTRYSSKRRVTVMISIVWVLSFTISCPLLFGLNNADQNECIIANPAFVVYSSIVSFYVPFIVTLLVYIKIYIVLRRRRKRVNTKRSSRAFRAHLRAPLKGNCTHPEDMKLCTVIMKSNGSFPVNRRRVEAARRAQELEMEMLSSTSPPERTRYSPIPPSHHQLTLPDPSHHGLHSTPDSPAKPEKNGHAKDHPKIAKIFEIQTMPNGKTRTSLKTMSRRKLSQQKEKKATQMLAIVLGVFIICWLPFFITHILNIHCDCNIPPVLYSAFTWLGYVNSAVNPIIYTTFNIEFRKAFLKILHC

Sequence of D2 receptor (P14416 whole entry): as above

On to `CC1(Oc2ccc(Cl)cc2)CCN(CCOc2ccccc2C(F)(F)F)CC1` [Compound 90, 4-(4-Chlorophenoxy)-4-methyl-1-(2-(2-(trifluoromethyl)phenoxy)ethyl) piperidine], for which the Ki at D2 receptor lay in the range of 100 to 1000 nM. The “block of D2R activation-induced reduction of GSK3-α/β (Ser 21/9) phosphorylation” value in assay [1] is given as “blocked”. Also, the “occupancy in the striatum ([11C]Raclopride PET)” value with striatal D2/D3 is reported as “continued high occupancy in the striatum”. Also, at human D2R/β-arrestin, the IC50 was 100 to 1000 nM.
